Measurements from US5574008A, “Biologically active fragments of glucagon-like insulinotropic peptide” (Eli Lilly and Company, priority 1994, dated 1996).

System: fasted normal Sprague-Dawley rats
Assay: In vivo hyperglycemic clamp assay (glucose up-take assay)
Parameters: species or system rat
Details: 0.3 nmol/kg iv bolus at 60 min
From the text: In vivo Hyperglycemic Clamp Assay (Glucose Up-take Assay) Male Sprague-Dawley rats (Charles Rivers) weighing about 350 grams were allowed to acclimate to their surroundings for a week after which they were cannulated under isoflurane inhalation anesthetic. Two catheters were implanted into the jugular vein for infusions of glucose and GLP-1 fragment. Another catheter was implanted into the carotid artery for sampling blood. The catheters were exteriorized through the skin at the vertex of the head, filled with a glycerol/heparin solution (30 ml glycerol/10 ml heparin from a 1000 u/ml stock solution), and closed off with a one centimeter stainless steel plug. The rats were housed individually in wire mesh cages and were fed ad libitum on a standard rat chow diet. Each animal was given at least one week to recover from surgery before testing any GLP-1 fragments for biological activity. The rats were fasted overnight; on the morning of the experiment, sampling tubes were connected to the indwelling catheters, and the tubes were enclosed in a light weight stainless steel spring for protection. The rats were acclimated to their cages for 15 minutes. All experiments were carried out in conscious, free moving rats. A basal blood sample was taken for measurement of insulin and glucose levels at time zero on the timer. The rats were then given a bolus of 20% dextrose to raise plasma glucose to either 150 mg/dl (8.3 mM) or 200 mg/dl (11.2 mM). Plasma glucose levels were maintained at the chosen level by measuring plasma glucose levels approximately every 5 minutes and adjusting the calibrated variable infusion pump as needed to maintain the established blood glucose levels. Blood samples were collected at 45 and 60 minutes for the control period measurements. At 60 minutes into the clamp, 0.3 nmol/kg of the experimental GLP-1 fragment was injected via the jugular vein catheter and flushed with saline. […] The blood samples were centrifuged in a micro centrifuge to separate the plasma component. Plasma glucose was measured on a Beckman Glucose analyzer II using the glucose oxidase method. Plasma insulin was determined by standard radio immunoassay as per the manufacturer's directions (Diagnostic Products Corp.). The activity of the GLP-1 fragment was determined by the percentage change in glucose infusion rate and change in insulin secreted. These two parameters were compared to control rats that received only diluent. Note: This assay is based on reports that GLP-1 insulinotropic action is glucose dependent. The assay protocol eliminates variability due to falling glucose levels in other protocols using the "bolus" method. The hyperglycemic clamp involved administration of variable amounts of glucose (20% dextrose) to maintain glucose at a constant level of 8.3 or 11.2 mM in fasted normal Sprague-Dawley rats. The hyperglycemic clamp is maintained for 1 hour after which the GLP-1 fragment is injected as a bolus through the jugular vein. […] The glucose infusion rate (GIR) in the last 15 minutes of the control period and after the injection of the peptide is calculated. The activity of the peptide is determined by the increase in glucose infusion rate and change in insulin secreted after the injection of the peptide.

[1] = 150 mg/dl plasma glucose clamp, time 60 min
[2] = 150 mg/dl plasma glucose clamp, time 62 min
[3] = 150 mg/dl plasma glucose clamp, time 64 min
[4] = 150 mg/dl plasma glucose clamp, time 66 min
[5] = 150 mg/dl plasma glucose clamp, time 68 min
[6] = 150 mg/dl plasma glucose clamp, time 70 min
[7] = 150 mg/dl plasma glucose clamp, time 75 min
[8] = 150 mg/dl plasma glucose clamp, time 80 min
[9] = 150 mg/dl plasma glucose clamp, time 85 min
[10] = 150 mg/dl plasma glucose clamp, time 90 min
[11] = 150 mg/dl plasma glucose clamp, time 100 min
[12] = 150 mg/dl plasma glucose clamp, time 110 min
[13] = 150 mg/dl plasma glucose clamp, time 120 min
[14] = 150 mg/dl plasma glucose clamp, time 130 min
[15] = 150 mg/dl plasma glucose clamp, time 140 min
[16] = 150 mg/dl plasma glucose clamp, time 150 min
[17] = 200 mg/dl plasma glucose clamp, time 60 min
[18] = 200 mg/dl plasma glucose clamp, time 62 min
[19] = 200 mg/dl plasma glucose clamp, time 64 min
[20] = 200 mg/dl plasma glucose clamp, time 66 min
[21] = 200 mg/dl plasma glucose clamp, time 68 min
[22] = 200 mg/dl plasma glucose clamp, time 70 min
[23] = 200 mg/dl plasma glucose clamp, time 75 min
[24] = 200 mg/dl plasma glucose clamp, time 80 min
[25] = 200 mg/dl plasma glucose clamp, time 85 min
[26] = 200 mg/dl plasma glucose clamp, time 90 min
[27] = 200 mg/dl plasma glucose clamp, time 100 min
[28] = 200 mg/dl plasma glucose clamp, time 110 min
[29] = 200 mg/dl plasma glucose clamp, time 120 min
[30] = 200 mg/dl plasma glucose clamp, time 130 min
[31] = 200 mg/dl plasma glucose clamp, time 140 min
[32] = 200 mg/dl plasma glucose clamp, time 150 min

With GLP-1(7-37)OH the “% Change in GIR” value [1] was 11.15%, the “Plasma Insulin Change” value [1] was 1.140 ng/mL and the “% Change in GIR” value [2] was -0.20%. The “Plasma Insulin Change” value [2] was 7.233 ng/mL, the “% Change in GIR” value [3] was 11.15% and the “Plasma Insulin Change” value [3] was 1.464 ng/mL. The “% Change in GIR” value [4] was 1.66%, the “Plasma Insulin Change” value [4] was 0.324 ng/mL and the “% Change in GIR” value [5] was 5.64%. For the same substance, the “Plasma Insulin Change” value [5] was -0.016 ng/mL, the “% Change in GIR” value [6] was 19.95% and the “Plasma Insulin Change” value [6] was -0.375 ng/mL. For the same substance, the “% Change in GIR” value [7] was 71.90%, the “Plasma Insulin Change” value [7] was -0.465 ng/mL and the “% Change in GIR” value [8] was 92.63%. The “Plasma Insulin Change” value [8] was -0.357 ng/mL, the “% Change in GIR” value [9] was 61.76% and the “Plasma Insulin Change” value [9] was -0.020 ng/mL. The “% Change in GIR” value [10] was 14.74%, the “Plasma Insulin Change” value [10] was -0.181 ng/mL and the “% Change in GIR” value [11] was -26.22%. The “Plasma Insulin Change” value [11] was -0.358 ng/mL, the “% Change in GIR” value [12] was -38.57% and the “Plasma Insulin Change” value [12] was -0.174 ng/mL. The “% Change in GIR” value [13] was -48.67%, the “Plasma Insulin Change” value [13] was -0.326 ng/mL and the “% Change in GIR” value [14] was -54.82%. For the same substance, the “Plasma Insulin Change” value [14] was -0.578 ng/mL, the “% Change in GIR” value [15] was -58.43% and the “Plasma Insulin Change” value [15] was -0.367 ng/mL. The “% Change in GIR” value [16] was -63.58%, the “Plasma Insulin Change” value [16] was -0.465 ng/mL and the “% Change in GIR” value [17] was 20.449%. For the same substance, the “Plasma Insulin Change” value [17] was 1.887 ng/mL, the “% Change in GIR” value [18] was 25.050% and the “Plasma Insulin Change” value [18] was 11.101 ng/mL. The “% Change in GIR” value [19] was 23.583%, the “Plasma Insulin Change” value [19] was 4.219 ng/mL and the “% Change in GIR” value [20] was 15.374%. The “Plasma Insulin Change” value [20] was 3.246 ng/mL, the “% Change in GIR” value [21] was 19.465% and the “Plasma Insulin Change” value [21] was 1.359 ng/mL. The “% Change in GIR” value [22] was 50.305%, the “Plasma Insulin Change” value [22] was -0.208 ng/mL and the “% Change in GIR” value [23] was 71.461%. The “Plasma Insulin Change” value [23] was -0.692 ng/mL, the “% Change in GIR” value [24] was 88.390% and the “Plasma Insulin Change” value [24] was -0.456 ng/mL. The “% Change in GIR” value [25] was 86.482%, the “Plasma Insulin Change” value [25] was -0.177 ng/mL and the “% Change in GIR” value [26] was 55.677%. For the same substance, the “Plasma Insulin Change” value [26] was -0.250 ng/mL, the “% Change in GIR” value [27] was 11.304% and the “Plasma Insulin Change” value [27] was -0.301 ng/mL. For the same substance, the “% Change in GIR” value [28] was -12.411%, the “Plasma Insulin Change” value [28] was -0.222 ng/mL and the “% Change in GIR” value [29] was -7.123%. For the same substance, the “Plasma Insulin Change” value [29] was -0.405 ng/mL, the “% Change in GIR” value [30] was -17.745% and the “Plasma Insulin Change” value [30] was -0.590 ng/mL. For the same substance, the “% Change in GIR” value [31] was -15.311%, the “Plasma Insulin Change” value [31] was -0.289 ng/mL and the “% Change in GIR” value [32] was -21.279%. The “Plasma Insulin Change” value [32] was -0.280 ng/mL.

In the case of “GLP-1(R26)(9-36)NH2 [GLP-1(R26) (9-36)NH2]”, the “% Change in GIR” value [17] is reported as 19.020%, the “Plasma Insulin Change” value [17] is reported as 1.692 ng/mL and the “% Change in GIR” value [18] is reported as 2.128%. The “Plasma Insulin Change” value [18] was 0.693 ng/mL, the “% Change in GIR” value [19] was 3.752% and the “Plasma Insulin Change” value [19] was 0.025 ng/mL. The “% Change in GIR” value [20] was 11.602%, the “Plasma Insulin Change” value [20] was 0.204 ng/mL and the “% Change in GIR” value [21] was 29.976%. The “Plasma Insulin Change” value [21] was 0.063 ng/mL, the “% Change in GIR” value [22] was 37.819% and the “Plasma Insulin Change” value [22] was 0.185 ng/mL. The “% Change in GIR” value [23] was 50.568%, the “Plasma Insulin Change” value [23] was -0.125 ng/mL and the “% Change in GIR” value [24] was 42.526%. The “Plasma Insulin Change” value [24] was 0.134 ng/mL, the “% Change in GIR” value [25] was 16.548% and the “Plasma Insulin Change” value [25] was -0.550 ng/mL. The “% Change in GIR” value [26] was -6.165%, the “Plasma Insulin Change” value [26] was -0.336 ng/mL and the “% Change in GIR” value [27] was -18.164%. The “Plasma Insulin Change” value [27] was 0.027 ng/mL, the “% Change in GIR” value [28] was -35.351% and the “Plasma Insulin Change” value [28] was -0.100 ng/mL. For the same substance, the “% Change in GIR” value [29] was -48.404% and the “Plasma Insulin Change” value [29] was 0.399 ng/mL.
